According to patent US20250255867A1 (Kadmon Corporation, LLC, priority 2022, published 2025):

Settings: Cohort 3 400 mg QD

## CC(C)NC(=O)COc1cccc(-c2nc(Nc3ccc4[nH]ncc4c3)c3ccccc3n2)c1 [Belumosudil, 2-{3-[4-(1H-indazol-5-ylamino)-2-quinazolinyl]phenoxy}-N-(propan-2-yl) acetamide]
  Renal failure: Affected/At Risk: 0/21
  Renal failure: Affected/At Risk (%): (0%)
  Respiratory syncytial virus infection: # Events: 3
  Respiratory syncytial virus infection: Affected/At Risk: 2/21
  Respiratory syncytial virus infection: Affected/At Risk (%): (9.52%)
  Respiratory tract infection fungal: # Events: 0
  Respiratory tract infection fungal: Affected/At Risk: 0/21
  Respiratory tract infection fungal: Affected/At Risk (%): (0%)
  Respiratory tract infection: # Events: 0
  Respiratory tract infection: Affected/At Risk: 0/21
  Respiratory tract infection: Affected/At Risk (%): (0%)
  Restless legs syndrome: # Events: 0
  Restless legs syndrome: Affected/At Risk: 0/21
  Restless legs syndrome: Affected/At Risk (%): (0%)
  Rosacea: # Events: 0
  Rosacea: Affected/At Risk: 0/21
  Rosacea: Affected/At Risk (%): (0%)
  SAE Abdominal wall haematoma, # events: 1
  SAE Abdominal wall haematoma, affected/at risk: 1/21
  SAE Acute kidney injury, # events: 0
  SAE Acute kidney injury, affected/at risk: 0/21
  SAE Acute lymphocytic leukaemia recurrent, # events: 1
  SAE Acute lymphocytic leukaemia recurrent, affected/at risk: 1/21
  SAE Acute respiratory failure, # events: 0
  SAE Acute respiratory failure, affected/at risk: 0/21
  SAE Anaphylactic reaction, # events: 0
  SAE Anaphylactic reaction, affected/at risk: 0/21
  SAE Bacteraemia, # events: 0
  SAE Bacteraemia, affected/at risk: 0/21
  SAE Cardiac arrest, # events: 1
  SAE Cardiac arrest, affected/at risk: 1/21
  SAE Cellulitis, # events: 0
  SAE Cellulitis, affected/at risk: 0/21
  SAE Chronic graft versus host disease in skin, # events: 0
  SAE Chronic graft versus host disease in skin, affected/at risk: 0/21
  SAE Citrobacter infection, # events: 0
  SAE Citrobacter infection, affected/at risk: 0/21
  SAE Dyspnoea, # events: 3
  SAE Dyspnoea, affected/at risk: 3/21
  SAE Embolism, # events: 0
  SAE Embolism, affected/at risk: 0/21
  SAE Febrile neutropenia, # events: 1
  SAE Febrile neutropenia, affected/at risk: 1/21
  SAE Graft versus host disease in lung, # events: 1
  SAE Graft versus host disease in lung, affected/at risk: 1/21
  SAE Hypoxia, # events: 2
  SAE Hypoxia, affected/at risk: 2/21
  SAE Influenza A virus test positive, # events: 0
  SAE Influenza A virus test positive, affected/at risk: 0/21
  SAE Influenza like illness, # events: 2
  SAE Influenza like illness, affected/at risk: 2/21
  SAE Lacunar infarction, # events: 0
  SAE Lacunar infarction, affected/at risk: 0/21
  SAE Leukaemia recurrent, # events: 1
  SAE Leukaemia recurrent, affected/at risk: 1/21
  SAE Lipomatosis, # events: 0
  SAE Lipomatosis, affected/at risk: 0/21
  SAE Metastases to meninges, # events: 0
  SAE Metastases to meninges, affected/at risk: 0/21
  SAE Muscular weakness, # events: 0
  SAE Muscular weakness, affected/at risk: 0/21
  SAE Myelodysplastic syndrome, # events: 1
  SAE Myelodysplastic syndrome, affected/at risk: 1/21
  SAE Non-cardiac chest pain, # events: 0
  SAE Non-cardiac chest pain, affected/at risk: 0/21
  SAE Obliterative bronchiolitis, # events: 0
  SAE Obliterative bronchiolitis, affected/at risk: 0/21
  SAE Pericardial effusion, # events: 1
  SAE Pericardial effusion, affected/at risk: 1/21
  SAE Pleural effusion, # events: 1
  SAE Pleural effusion, affected/at risk: 1/21
  SAE Pneumonia viral, # events: 1
  SAE Pneumonia viral, affected/at risk: 1/21
  SAE Pneumonia, # events: 3
  SAE Pneumonia, affected/at risk: 3/21
  SAE Pregnancy of partner, # events: 1
  SAE Pregnancy of partner, affected/at risk: 1/21
  SAE Proteinuria, # events: 0
  SAE Proteinuria, affected/at risk: 0/21
  SAE Respirovirus test positive, # events: 0
  SAE Respirovirus test positive, affected/at risk: 0/21
  SAE Small intestinal obstruction, # events: 1
  SAE Small intestinal obstruction, affected/at risk: 1/21
  SAE Stenotrophomonas infection, # events: 0
  SAE Stenotrophomonas infection, affected/at risk: 0/21
  SAE Urinary retention, # events: 1
  SAE Urinary retention, affected/at risk: 1/21
  SAE Urinary tract infection, # events: 0
  SAE Urinary tract infection, affected/at risk: 0/21
  SAE Varicella zoster virus infection, # events: 1
  SAE Varicella zoster virus infection, affected/at risk: 1/21
  SAE total, affected/at risk: 13/21
  Sinus pain: # Events: 0
  Sinus pain: Affected/At Risk: 0/21
  Sinus pain: Affected/At Risk (%): (0%)
  Sinusitis: # Events: 1
  Sinusitis: Affected/At Risk: 1/21
  Sinusitis: Affected/At Risk (%): (4.76%)
  Skin abrasion: # Events: 2
  Skin abrasion: Affected/At Risk: 2/21
  Skin abrasion: Affected/At Risk (%): (9.52%)
  Skin lesion: # Events: 0
  Skin lesion: Affected/At Risk: 0/21
  Skin lesion: Affected/At Risk (%): (0%)
  Skin papilloma: # Events: 0
  Skin papilloma: Affected/At Risk: 0/21
  Skin papilloma: Affected/At Risk (%): (0%)
  Spinal compression fracture: # Events: 0
  Spinal compression fracture: Affected/At Risk: 0/21
  Spinal compression fracture: Affected/At Risk (%): (0%)
  Squamous cell carcinoma of skin: # Events: 0
  Squamous cell carcinoma of skin: Affected/At Risk: 0/21
  Squamous cell carcinoma of skin: Affected/At Risk (%): (0%)
  Stomatitis: # Events: 1
  Stomatitis: Affected/At Risk: 1/21
  Stomatitis: Affected/At Risk (%): (4.76%)
  Superior vena cava syndrome: # Events: 0
  Superior vena cava syndrome: Affected/At Risk: 0/21
  Superior vena cava syndrome: Affected/At Risk (%): (0%)
  Tachycardia: # Events: 2
  Tachycardia: Affected/At Risk: 2/21
  Tachycardia: Affected/At Risk (%): (9.52%)
  Tendonitis: # Events: 0
  Tendonitis: Affected/At Risk: 0/21
  Tendonitis: Affected/At Risk (%): (0%)
  Testicular pain: # Events: 0
  Testicular pain: Affected/At Risk: 0/21
  Testicular pain: Affected/At Risk (%): (0%)
  Testicular swelling: # Events: 0
  Testicular swelling: Affected/At Risk: 0/21
  Testicular swelling: Affected/At Risk (%): (0%)
  Thoracic spinal stenosis: # Events: 0
  Thoracic spinal stenosis: Affected/At Risk: 0/21
  Thoracic spinal stenosis: Affected/At Risk (%): (0%)
  Thrombocytopenia: # Events: 1
  Thrombocytopenia: Affected/At Risk: 1/21
  Thrombocytopenia: Affected/At Risk (%): (4.76%)
